Reference: publication PMC6211230, “Assessment of the antiproliferative and apoptotic roles of sulfonamide carbonic anhydrase IX inhibitors in HeLa cancer cell line” (Journal of Enzyme Inhibition and Medicinal Chemistry, 2018)

Assays:
Assay type in all cases: cell-based, human
[1] = tested on: HeLa; assay: WST-1 cytotoxicity, HeLa
Protocol: (§1) Cancer and normal cell lines were purchased from ATCC and stored in liquid nitrogen. HT-29 (colon adenoma cancer), HeLa (cervix adenoma cancer cell), MDA-MB-231 (breast adenoma cancer cell) and HEK-293 (embryonic kidney epithelial cell), PNT-1A (normal prostate cells) cell lines were incubated in DMEM: F-12 and RPMI-1640, including 10% Foetal Bovine Serum (FBS), 100 μg/mL streptomycin/100 IU/mL penicillin, at 37 °C in an incubator containing 5% CO2, 95% air in a humid atmosphere.
(§2) The cytotoxic effects of the substances were evaluated with WST-1 kits (Roche, Germany) in accordance with the manufacturer’s protocols. The cells were plated on 96-well plates (10^4 cells in each well). After incubation for 24 h, the media were discarded and the substances and Cisplatin as the control drug, at doses of 0, 2.5, 5, 10, 25, 50, 100, and 200 μM, were incubated for 24, 48, and 72 h. WST-1 reactive of 10 µl was added to all wells. Following 4 h incubation, the measurements were taken on a plate reader (Spectramax M5) at wavelengths of 450 and 630 nm. Graphs were then created and the IC50 value of each substance was calculated.

[2] = tested on: HT-29; assay: WST-1 cytotoxicity, HT-29
Protocol: as §1, §2

[3] = tested on: MDA-MB-231; assay: WST-1 cytotoxicity, MDA-MB-231
Protocol: as §1, §2

[4] = tested on: HEK-293; assay: WST-1 cytotoxicity, HEK-293 normal cells; settings: HEK-293 normal cell
Protocol: as §1, §2

[5] = tested on: PNT-1A; assay: WST-1 cytotoxicity, PNT-1A normal cells; settings: PNT-1A normal cell
Protocol: as §1, §2

SMILES	IC50 ([1]; 24 h)	IC50 ([1]; 48 h)	IC50 ([1]; 72 h)	IC50 ([2]; HT-29, 24 h)	IC50 ([2]; HT-29, 48 h)	IC50 ([2]; HT-29, 72 h)	IC50 ([3]; MDA-MB-231, 24 h)	IC50 ([3]; MDA-MB-231, 48 h)	IC50 ([3]; MDA-MB-231, 72 h)	IC50 ([4]; 24 h)	IC50 ([4]; 48 h)	IC50 ([4]; 72 h)	IC50 ([5]; 24 h)	IC50 ([5]; 48 h)	IC50 ([5]; 72 h)
N.N.[Cl][Pt][Cl] [Cisplatin, reference compound]	28.9 µM	7.6 µM	6.1 µM	23.7 µM	20 µM	16.3 µM	21.2 µM	10.2 µM	7 µM	29.6 µM	14 µM	2 µM	13.4 µM	11.4 µM	8.2 µM
NS(=O)(=O)c1ccc(CCN=Cc2cc(Cl)cc(Cl)c2O)cc1 [Compound A-2]	345 µM	300 µM	123 µM	234 µM	254 µM	134 µM	125 µM	145 µM	100 µM	120 µM	100 µM	65.4 µM	167 µM	170 µM	100 µM
NS(=O)(=O)c1ccc(CCN=Cc2ccccc2O)cc1 [Compound A-3]	123 µM	112 µM	76.5 µM	143 µM	100 µM	87.4 µM	98.5 µM	80.5 µM	65.4 µM	98.4 µM	65.4 µM	32.2 µM	45.4 µM	43.3 µM	23.3 µM
NS(=O)(=O)c1ccc(CCNCc2cc(Cl)ccc2O)cc1 [Compound B-1]	218 µM	112 µM	98.9 µM	606 µM	63.8 µM	91.8 µM	492 µM	595 µM	243 µM	324 µM	207 µM	63.7 µM	593 µM	190 µM	372 µM
NS(=O)(=O)c1ccc(CCNCc2cc(Cl)cc(Cl)c2O)cc1 [Compound B-2]	234 µM	212 µM	154 µM	356 µM	200 µM	155 µM	145 µM	43.3 µM	54.3 µM	230 µM	215 µM	120 µM	55.4 µM	23.2 µM	12.3 µM
NS(=O)(=O)c1ccc(CCNCc2ccccc2O)cc1 [Compound B-3]	156 µM	134 µM	45.4 µM	560 µM	450 µM	210 µM	345 µM	234 µM	126 µM	179 µM	120 µM	45.4 µM	100 µM	89.4 µM	70.4 µM
